Experimental data published in ChEMBL document CHEMBL4507295 (2021).

Key:
[1] = target: Tyrosine-protein kinase ABL2 (Homo sapiens) (UniProt P42684); settings: Compound concentration 1000.0 nM
[2] = target: NT-3 growth factor receptor (Homo sapiens) (UniProt Q16288); settings: Compound concentration 1000.0 nM
[3] = target: Receptor-interacting serine/threonine-protein kinase 4 (Homo sapiens) (UniProt P57078); settings: Compound concentration 1000.0 nM
[4] = target: Cyclin-dependent kinase 17 (Homo sapiens) (UniProt Q00537); settings: Compound concentration 1000.0 nM
[5] = test system: Serine/threonine-protein kinase B-raf (Homo sapiens), P15056 [V600E]; settings: Compound concentration 1000.0 nM
[6] = target: Mitogen-activated protein kinase 3 (Homo sapiens) (UniProt P27361); settings: Compound concentration 1000.0 nM
[7] = target: Serine/threonine-protein kinase WNK2 (Homo sapiens) (UniProt Q9Y3S1); settings: Compound concentration 1000.0 nM
[8] = target: cGMP-dependent protein kinase 1 (Homo sapiens) (UniProt Q13976); settings: Compound concentration 1000.0 nM
[9] = target: Angiopoietin-1 receptor (Homo sapiens) (UniProt Q02763); settings: Compound concentration 1000.0 nM
[10] = target: Dual specificity mitogen-activated protein kinase kinase 1 (Homo sapiens) (UniProt Q02750); settings: Compound concentration 1000.0 nM
[11] = target: Serine/threonine-protein kinase 26 (Homo sapiens) (UniProt Q9P289); settings: Compound concentration 1000.0 nM
[12] = target: Phosphatidylinositol 5-phosphate 4-kinase type-2 gamma (Homo sapiens) (UniProt Q8TBX8); settings: Compound concentration 1000.0 nM
[13] = target: Leucine-rich repeat serine/threonine-protein kinase 2 (Homo sapiens) (UniProt Q5S007); settings: Compound concentration 1000.0 nM
[14] = target: 5'-AMP-activated protein kinase catalytic subunit alpha-2 (Homo sapiens) (UniProt P54646); settings: Compound concentration 1000.0 nM
[15] = target: Receptor-type tyrosine-protein kinase FLT3 (Homo sapiens) (UniProt P36888); settings: Compound concentration 1000.0 nM
[16] = target: Ribosomal protein S6 kinase alpha-4 (Homo sapiens) (UniProt O75676); settings: Compound concentration 1000.0 nM
[17] = target: Mitogen-activated protein kinase 4 (Homo sapiens) (UniProt P31152); settings: Compound concentration 1000.0 nM
[18] = target: Ribosomal protein S6 kinase beta-1 (Homo sapiens) (UniProt P23443); settings: Compound concentration 1000.0 nM
[19] = target: Serine/threonine-protein kinase MARK2 (Homo sapiens) (UniProt Q7KZI7); settings: Compound concentration 1000.0 nM
[20] = test system: Epidermal growth factor receptor (Homo sapiens), P00533 [UNDEFINED MUTATION]; settings: Compound concentration 1000.0 nM
[21] = target: Phosphatidylinositol 4-phosphate 5-kinase type-1 alpha (Homo sapiens) (UniProt Q99755); settings: Compound concentration 1000.0 nM
[22] = target: Membrane-associated tyrosine- and threonine-specific cdc2-inhibitory kinase (Homo sapiens) (UniProt Q99640); settings: Compound concentration 1000.0 nM
[23] = target: T1, Muscarinic acetylcholine receptor M4 (Homo sapiens) (UniProt P08173); settings: Compound concentration 10.0 uM
T1 sequence (whole entry): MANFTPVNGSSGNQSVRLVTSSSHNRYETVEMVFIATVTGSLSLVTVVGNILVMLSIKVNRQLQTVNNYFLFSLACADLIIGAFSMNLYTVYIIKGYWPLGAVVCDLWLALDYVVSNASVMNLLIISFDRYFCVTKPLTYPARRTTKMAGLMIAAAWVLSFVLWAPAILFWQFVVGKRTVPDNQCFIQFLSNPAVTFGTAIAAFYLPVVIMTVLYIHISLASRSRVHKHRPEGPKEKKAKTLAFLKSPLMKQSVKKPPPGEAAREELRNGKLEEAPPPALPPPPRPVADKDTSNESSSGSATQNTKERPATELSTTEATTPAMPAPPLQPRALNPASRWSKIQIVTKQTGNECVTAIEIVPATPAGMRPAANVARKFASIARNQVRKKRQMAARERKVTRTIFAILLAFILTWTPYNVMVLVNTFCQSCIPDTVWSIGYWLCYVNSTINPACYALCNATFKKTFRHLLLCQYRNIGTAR

[24] = test system: Phosphatidylinositol 4,5-bisphosphate 3-kinase catalytic subunit alpha isoform (Homo sapiens), P42336 [Q546K]; settings: Compound concentration 1000.0 nM
[25] = test system: Phosphatidylinositol 4,5-bisphosphate 3-kinase catalytic subunit alpha isoform (Homo sapiens), P42336 [H1047Y]; settings: Compound concentration 1000.0 nM
[26] = test system: Hepatocyte growth factor receptor (Homo sapiens), P08581 [Y1235D]; settings: Compound concentration 1000.0 nM
[27] = target: MAP/microtubule affinity-regulating kinase 4 (Homo sapiens) (UniProt Q96L34); settings: Compound concentration 1000.0 nM
[28] = target: Serine/threonine-protein kinase WNK3 (Homo sapiens) (UniProt Q9BYP7); settings: Compound concentration 1000.0 nM
[29] = target: Activated CDC42 kinase 1 (Homo sapiens) (UniProt Q07912); settings: Compound concentration 1000.0 nM
[30] = target: Phosphatidylinositol 4,5-bisphosphate 3-kinase catalytic subunit alpha isoform (Homo sapiens) (UniProt P42336); settings: Compound concentration 1000.0 nM
[31] = target: Myosin light chain kinase (Homo sapiens) (UniProt Q32MK0); settings: Compound concentration 1000.0 nM
[32] = target: Serine/threonine-protein kinase PAK 2 (Homo sapiens) (UniProt Q13177); settings: Compound concentration 1000.0 nM
[33] = test system: Tyrosine-protein kinase ABL1 (Homo sapiens), P00519 [Q252H]; settings: Compound concentration 1000.0 nM

Sequence of Receptor-interacting serine/threonine-protein kinase 4 (Homo sapiens) (P57078 whole entry): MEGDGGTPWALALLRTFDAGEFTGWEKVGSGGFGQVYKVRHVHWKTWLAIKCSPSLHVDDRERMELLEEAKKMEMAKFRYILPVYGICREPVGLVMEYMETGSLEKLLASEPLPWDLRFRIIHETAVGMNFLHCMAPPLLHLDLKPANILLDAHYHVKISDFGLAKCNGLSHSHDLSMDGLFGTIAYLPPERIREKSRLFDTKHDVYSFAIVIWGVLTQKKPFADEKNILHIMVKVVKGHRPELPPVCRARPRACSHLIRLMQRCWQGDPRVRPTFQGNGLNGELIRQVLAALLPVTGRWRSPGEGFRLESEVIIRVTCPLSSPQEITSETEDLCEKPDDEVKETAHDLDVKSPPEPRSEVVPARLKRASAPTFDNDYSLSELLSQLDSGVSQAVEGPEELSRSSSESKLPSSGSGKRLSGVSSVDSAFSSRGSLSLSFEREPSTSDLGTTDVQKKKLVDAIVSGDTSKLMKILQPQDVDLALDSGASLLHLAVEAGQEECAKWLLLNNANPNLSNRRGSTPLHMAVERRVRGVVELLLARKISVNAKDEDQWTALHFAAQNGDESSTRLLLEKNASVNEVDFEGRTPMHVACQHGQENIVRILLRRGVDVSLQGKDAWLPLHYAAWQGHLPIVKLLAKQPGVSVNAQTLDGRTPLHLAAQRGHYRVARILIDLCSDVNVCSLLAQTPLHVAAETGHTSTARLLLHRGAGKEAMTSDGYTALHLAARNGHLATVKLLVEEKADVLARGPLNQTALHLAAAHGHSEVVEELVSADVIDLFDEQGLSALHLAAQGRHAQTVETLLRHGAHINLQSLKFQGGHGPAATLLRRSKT
Sequence of Serine/threonine-protein kinase WNK3 (Homo sapiens) (Q9BYP7 whole entry): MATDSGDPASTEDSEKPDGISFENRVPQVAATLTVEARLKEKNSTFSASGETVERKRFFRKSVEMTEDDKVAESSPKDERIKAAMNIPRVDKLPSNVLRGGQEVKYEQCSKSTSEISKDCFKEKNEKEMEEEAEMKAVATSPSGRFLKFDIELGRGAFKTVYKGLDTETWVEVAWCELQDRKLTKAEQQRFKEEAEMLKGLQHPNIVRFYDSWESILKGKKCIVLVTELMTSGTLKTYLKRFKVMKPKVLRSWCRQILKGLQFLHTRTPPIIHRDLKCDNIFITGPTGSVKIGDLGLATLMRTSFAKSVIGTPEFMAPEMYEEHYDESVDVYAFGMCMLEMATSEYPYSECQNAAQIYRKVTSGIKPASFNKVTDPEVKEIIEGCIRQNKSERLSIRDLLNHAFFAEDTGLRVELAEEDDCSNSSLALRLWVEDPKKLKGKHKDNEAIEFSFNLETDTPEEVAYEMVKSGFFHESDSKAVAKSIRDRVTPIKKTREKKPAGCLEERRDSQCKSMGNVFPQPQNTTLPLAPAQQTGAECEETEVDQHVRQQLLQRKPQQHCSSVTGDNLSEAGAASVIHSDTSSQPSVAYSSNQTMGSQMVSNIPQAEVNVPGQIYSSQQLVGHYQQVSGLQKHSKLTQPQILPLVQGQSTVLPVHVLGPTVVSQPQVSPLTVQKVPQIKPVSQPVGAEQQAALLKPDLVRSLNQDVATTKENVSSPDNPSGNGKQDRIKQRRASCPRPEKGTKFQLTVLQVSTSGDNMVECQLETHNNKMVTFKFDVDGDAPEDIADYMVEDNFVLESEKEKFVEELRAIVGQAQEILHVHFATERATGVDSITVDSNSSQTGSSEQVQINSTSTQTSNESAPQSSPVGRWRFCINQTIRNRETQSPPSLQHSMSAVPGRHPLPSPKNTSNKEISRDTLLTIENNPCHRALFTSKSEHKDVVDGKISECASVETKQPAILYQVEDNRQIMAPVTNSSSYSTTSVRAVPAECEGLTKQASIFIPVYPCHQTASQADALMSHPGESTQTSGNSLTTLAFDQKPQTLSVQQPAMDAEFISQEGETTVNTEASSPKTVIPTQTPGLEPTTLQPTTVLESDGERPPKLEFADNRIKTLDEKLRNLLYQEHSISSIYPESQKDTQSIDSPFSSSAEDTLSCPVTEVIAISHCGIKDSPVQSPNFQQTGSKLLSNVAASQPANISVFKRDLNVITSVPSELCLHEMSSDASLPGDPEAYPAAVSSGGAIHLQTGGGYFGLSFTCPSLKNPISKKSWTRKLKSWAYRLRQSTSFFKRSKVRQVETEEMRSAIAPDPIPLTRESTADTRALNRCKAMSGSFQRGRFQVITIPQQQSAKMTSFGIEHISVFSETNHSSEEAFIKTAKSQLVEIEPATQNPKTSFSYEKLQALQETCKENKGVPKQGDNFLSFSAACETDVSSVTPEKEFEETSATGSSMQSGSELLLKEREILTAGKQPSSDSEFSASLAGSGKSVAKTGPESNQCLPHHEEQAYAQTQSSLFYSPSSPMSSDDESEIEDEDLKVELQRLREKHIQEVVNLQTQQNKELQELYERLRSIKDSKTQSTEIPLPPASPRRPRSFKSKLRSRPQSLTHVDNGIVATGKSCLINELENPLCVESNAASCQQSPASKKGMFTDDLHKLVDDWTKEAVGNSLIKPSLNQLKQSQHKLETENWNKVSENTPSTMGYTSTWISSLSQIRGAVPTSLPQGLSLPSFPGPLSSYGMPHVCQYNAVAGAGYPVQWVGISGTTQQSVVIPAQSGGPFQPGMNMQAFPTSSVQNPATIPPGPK
Sequence of Phosphatidylinositol 5-phosphate 4-kinase type-2 gamma (Homo sapiens) (Q8TBX8 whole entry): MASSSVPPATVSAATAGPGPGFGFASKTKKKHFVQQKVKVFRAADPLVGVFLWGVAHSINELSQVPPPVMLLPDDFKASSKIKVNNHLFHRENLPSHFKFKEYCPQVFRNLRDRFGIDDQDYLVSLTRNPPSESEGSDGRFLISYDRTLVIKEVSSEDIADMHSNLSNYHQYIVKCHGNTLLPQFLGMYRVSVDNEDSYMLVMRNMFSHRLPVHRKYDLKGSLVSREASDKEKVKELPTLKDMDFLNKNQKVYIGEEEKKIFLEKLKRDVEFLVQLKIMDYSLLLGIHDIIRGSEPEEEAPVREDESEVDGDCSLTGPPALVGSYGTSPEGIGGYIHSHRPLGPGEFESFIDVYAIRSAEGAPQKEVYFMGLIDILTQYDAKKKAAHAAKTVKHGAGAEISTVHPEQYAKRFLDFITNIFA
Sequence of Epidermal growth factor receptor (Homo sapiens), P00533 [UNDEFINED MUTATION] (P00533 whole entry, looked up, change not shown): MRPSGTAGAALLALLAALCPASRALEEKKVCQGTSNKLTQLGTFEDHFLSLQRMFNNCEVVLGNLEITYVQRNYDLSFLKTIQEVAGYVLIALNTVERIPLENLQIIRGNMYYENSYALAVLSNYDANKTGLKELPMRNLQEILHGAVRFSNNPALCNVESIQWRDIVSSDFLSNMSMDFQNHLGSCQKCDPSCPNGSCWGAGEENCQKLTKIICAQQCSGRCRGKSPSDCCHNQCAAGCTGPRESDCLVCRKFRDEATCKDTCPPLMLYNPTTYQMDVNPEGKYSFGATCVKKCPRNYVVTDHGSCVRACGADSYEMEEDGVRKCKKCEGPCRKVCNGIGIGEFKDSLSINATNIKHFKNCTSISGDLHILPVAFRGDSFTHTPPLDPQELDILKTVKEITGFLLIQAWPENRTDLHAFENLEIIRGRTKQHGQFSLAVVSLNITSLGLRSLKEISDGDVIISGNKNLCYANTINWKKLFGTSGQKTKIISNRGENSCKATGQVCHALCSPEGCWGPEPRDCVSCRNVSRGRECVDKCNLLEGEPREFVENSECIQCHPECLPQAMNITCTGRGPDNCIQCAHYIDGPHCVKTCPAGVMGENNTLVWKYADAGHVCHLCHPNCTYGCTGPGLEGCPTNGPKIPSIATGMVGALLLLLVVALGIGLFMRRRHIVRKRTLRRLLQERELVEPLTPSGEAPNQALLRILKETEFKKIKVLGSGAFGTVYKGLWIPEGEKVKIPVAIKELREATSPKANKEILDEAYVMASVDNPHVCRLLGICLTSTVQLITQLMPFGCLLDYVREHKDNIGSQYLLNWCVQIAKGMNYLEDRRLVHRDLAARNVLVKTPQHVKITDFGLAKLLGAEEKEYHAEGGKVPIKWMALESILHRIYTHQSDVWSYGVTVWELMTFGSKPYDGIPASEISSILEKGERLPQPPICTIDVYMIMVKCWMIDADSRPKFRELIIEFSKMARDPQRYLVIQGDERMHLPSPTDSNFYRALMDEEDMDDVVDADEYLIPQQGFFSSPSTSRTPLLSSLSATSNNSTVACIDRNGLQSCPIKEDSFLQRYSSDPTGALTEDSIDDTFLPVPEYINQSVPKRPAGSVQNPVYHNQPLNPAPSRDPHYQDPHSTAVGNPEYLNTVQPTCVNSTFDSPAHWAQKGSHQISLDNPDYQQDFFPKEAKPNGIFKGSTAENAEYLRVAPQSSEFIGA
Sequence of Mitogen-activated protein kinase 3 (Homo sapiens) (P27361 whole entry): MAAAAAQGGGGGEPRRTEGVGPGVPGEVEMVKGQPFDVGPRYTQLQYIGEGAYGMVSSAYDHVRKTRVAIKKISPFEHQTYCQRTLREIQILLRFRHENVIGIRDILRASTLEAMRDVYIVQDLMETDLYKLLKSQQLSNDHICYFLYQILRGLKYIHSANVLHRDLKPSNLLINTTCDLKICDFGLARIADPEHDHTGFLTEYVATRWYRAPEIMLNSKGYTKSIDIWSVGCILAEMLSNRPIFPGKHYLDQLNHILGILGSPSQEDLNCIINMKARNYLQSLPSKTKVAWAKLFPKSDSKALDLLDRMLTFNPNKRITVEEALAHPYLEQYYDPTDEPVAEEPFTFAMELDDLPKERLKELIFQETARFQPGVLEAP
Sequence of Dual specificity mitogen-activated protein kinase kinase 1 (Homo sapiens) (Q02750 whole entry): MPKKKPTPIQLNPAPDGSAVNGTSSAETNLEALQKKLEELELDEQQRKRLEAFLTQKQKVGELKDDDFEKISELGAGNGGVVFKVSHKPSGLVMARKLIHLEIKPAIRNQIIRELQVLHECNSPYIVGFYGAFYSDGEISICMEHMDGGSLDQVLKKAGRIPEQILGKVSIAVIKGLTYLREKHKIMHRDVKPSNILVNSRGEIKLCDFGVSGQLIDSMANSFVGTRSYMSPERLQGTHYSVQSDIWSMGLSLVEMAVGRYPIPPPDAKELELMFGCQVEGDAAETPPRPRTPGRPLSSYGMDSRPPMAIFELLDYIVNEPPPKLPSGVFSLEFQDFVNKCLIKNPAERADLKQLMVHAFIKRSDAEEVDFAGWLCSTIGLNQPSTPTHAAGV

SMILES: N#CC1(c2ccccn2)CCN(Cc2cc(C(=O)N3CCCC3)c(=O)n3ccccc23)CC1
- residual activity [1]: 100%
- residual activity [2]: 100%
- residual activity [3]: 100%
- residual activity [4]: 82%
- residual activity [5]: 99%
- residual activity [6]: 91%
- residual activity [7]: 100%
- residual activity [8]: 88%
- residual activity [9]: 85%
- residual activity [10]: 100%
- residual activity [11]: 100%
- residual activity [12]: 58%
- residual activity [13]: 100%
- residual activity [14]: 100%
- residual activity [15]: 98%
- residual activity [16]: 79%
- residual activity [17]: 76%
- residual activity [18]: 34%
- residual activity [19]: 100%
- residual activity [20]: 94%
- residual activity [21]: 100%
- residual activity [22]: 79%
- inhibition [23]: -8.87%
- residual activity [24]: 94%
- residual activity [25]: 64%
- residual activity [26]: 97%
- residual activity [27]: 90%
- residual activity [28]: 94%
- residual activity [29]: 85%
- residual activity [30]: 80%
- residual activity [31]: 76%
- residual activity [32]: 100%
- residual activity [33]: 90%

SMILES: N#CC1(c2ccccn2)CCN(Cc2cc(C(=O)O)c(=O)n3ccccc23)CC1 [MSD-M1PAM]
- residual activity [1]: 100%
- residual activity [2]: 70%
- residual activity [3]: 80%
- residual activity [4]: 96%
- residual activity [5]: 100%
- residual activity [6]: 100%
- residual activity [7]: 79%
- residual activity [8]: 98%
- residual activity [9]: 95%
- residual activity [10]: 95%
- residual activity [11]: 100%
- residual activity [12]: 99%
- residual activity [13]: 65%
- residual activity [14]: 100%
- residual activity [15]: 80%
- residual activity [16]: 94%
- residual activity [17]: 100%
- residual activity [18]: 96%
- residual activity [19]: 100%
- residual activity [20]: 80%
- residual activity [21]: 100%
- residual activity [22]: 100%
- inhibition [23]: -2.36%
- residual activity [24]: 58%
- residual activity [25]: 100%
- residual activity [26]: 99%
- residual activity [27]: 98%
- residual activity [28]: 99%
- residual activity [29]: 99%
- residual activity [30]: 100%
- residual activity [31]: 87%
- residual activity [32]: 77%
- residual activity [33]: 72%
